According to ChEMBL document CHEMBL1201862, “PubChem BioAssay data set” (2004):
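Dose response: 5 concentrations. Exposure: 48 h. Format: 96-well plates. Endpoint: linear interpolation; highest concentration if not reached. GI50 marks 50% less growth.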 The source made the active and inactive calls. Rule as the data show it: active = GI50 up to about 1.1 µM and inactive = higher.

How the values were obtained:
Test in all cases: NCI tumour cell line growth inhibition, 48 h
SN12C = tested on: SN12C
HOP-92 = tested on: HOP-92
MDA-MB-435 = tested on: MDA-MB-435
COLO 205 = tested on: COLO 205
NCI-H23 = tested on: NCI-H23
NCI-H226 = tested on: NCI-H226
HCC 2998 = tested on: HCC 2998
RPMI-8226 = tested on: RPMI-8226
HCT-116 = tested on: HCT-116
MOLT-4 = tested on: MOLT-4
NCI-H460 = tested on: NCI-H460
MCF7 = tested on: MCF7
OVCAR-4 = tested on: OVCAR-4
K562 = tested on: K562
ACHN = tested on: ACHN
UACC-62 = tested on: UACC-62
SNB-75 = tested on: SNB-75
A498 = tested on: A498
SK-MEL-2 = tested on: SK-MEL-2
KM12 = tested on: KM12
BT-549 = tested on: BT-549
MDA-N = tested on: MDA-N
EKVX = tested on: EKVX
786-0 = tested on: 786-0
M14 = tested on: M14
T47D = tested on: T47D
CAKI-1 = tested on: CAKI-1
DU-145 = tested on: DU-145
Hs-578T = tested on: Hs-578T
CCRF-CEM = tested on: CCRF-CEM
IGROV-1 = tested on: IGROV-1
PC-3 = tested on: PC-3
SW-620 = tested on: SW-620
HL-60 = tested on: HL-60
UACC-257 = tested on: UACC-257
HT-29 = tested on: HT-29
OVCAR-3 = tested on: OVCAR-3
SR = tested on: SR
UO-31 = tested on: UO-31
OVCAR-5 = tested on: OVCAR-5
SK-MEL-28 = tested on: SK-MEL-28
A549 = tested on: A549
U-251 = tested on: U-251
MDA-MB-231 = tested on: MDA-MB-231
OVCAR-8 = tested on: OVCAR-8
SK-MEL-5 = tested on: SK-MEL-5
SF-268 = tested on: SF-268
Malme-3M = tested on: Malme-3M
HOP-62 = tested on: HOP-62
NCI/ADR-RES = tested on: NCI/ADR-RES
RXF 393 = tested on: RXF 393
HCT-15 = tested on: HCT-15
SNB-19 = tested on: SNB-19
LOX IMVI = tested on: LOX IMVI
SF-295 = tested on: SF-295
NCI-H522 = tested on: NCI-H522
TK-10 = tested on: TK-10
SF-539 = tested on: SF-539
SK-OV-3 = tested on: SK-OV-3

## COc1ccc(C2=NNC(c3cc4cc(Br)ccc4nc3Cl)C2)cc1 (stereo not given)
SN12C
  GI50: 7.66 µM (inactive)
HOP-92
  GI50: > 25 µM (inactive)
MDA-MB-435
  GI50: 7.16 µM (inactive)
COLO 205
  GI50: 11.7 µM (inactive)
NCI-H23
  GI50: 15.4 µM (inactive)
NCI-H226
  GI50: 0.0107 µM (active)
HCC 2998
  GI50: 11.5 µM (inactive)
RPMI-8226
  GI50: 5.74 µM (inactive)
HCT-116
  GI50: 10.5 µM (inactive)
MOLT-4
  GI50: 3.82 µM (inactive)
NCI-H460
  GI50: 10 µM (inactive)
MCF7
  GI50: 6.67 µM (inactive)
OVCAR-4
  GI50: 15.3 µM (inactive)
K562
  GI50: 6.21 µM (inactive)
ACHN
  GI50: 13.2 µM (inactive)
UACC-62
  GI50: 22.6 µM (inactive)
SNB-75
  GI50: 0.0631 µM (active)
A498
  GI50: > 25 µM (inactive)
SK-MEL-2
  GI50: 11.8 µM (inactive)
KM12
  GI50: 22.9 µM (inactive)
BT-549
  GI50: 14.5 µM (inactive)
MDA-N
  GI50: 6.31 µM (inactive)
EKVX
  GI50: 19.4 µM (inactive)
786-0
  GI50: 15.9 µM (inactive)
M14
  GI50: 11.5 µM (inactive)
T47D
  GI50: 0.0887 µM (active)
CAKI-1
  GI50: 12.6 µM (inactive)
DU-145
  GI50: 11.7 µM (inactive)
Hs-578T
  GI50: 0.0129 µM (active)
CCRF-CEM
  GI50: 0.13 µM (active)
IGROV-1
  GI50: 9.42 µM (inactive)
PC-3
  GI50: 11.9 µM (inactive)
SW-620
  GI50: 10.9 µM (inactive)
HL-60
  GI50: 6.19 µM (inactive)
UACC-257
  GI50: 12.2 µM (inactive)
HT-29
  GI50: 14.6 µM (inactive)
OVCAR-3
  GI50: 18.2 µM (inactive)
SR
  GI50: 0.185 µM (active)
UO-31
  GI50: 13.1 µM (inactive)
OVCAR-5
  GI50: > 25 µM (inactive)
SK-MEL-28
  GI50: 15.5 µM (inactive)

## CCN(CC)c1nc(N(C)C)c2ccc(OC)cc2n1
SN12C
  GI50: 15 µM (inactive)
HOP-92
  GI50: 18.5 µM (inactive)
A549
  GI50: 19.7 µM (inactive)
MDA-MB-435
  GI50: 10.5 µM (inactive)
COLO 205
  GI50: 7.55 µM (inactive)
U-251
  GI50: 20.2 µM (inactive)
NCI-H23
  GI50: 15.1 µM (inactive)
NCI-H226
  GI50: 14.2 µM (inactive)
MDA-MB-231
  GI50: 17.1 µM (inactive)
HCC 2998
  GI50: 11.6 µM (inactive)
OVCAR-8
  GI50: 15.2 µM (inactive)
SK-MEL-5
  GI50: 11.6 µM (inactive)
RPMI-8226
  GI50: 10.1 µM (inactive)
HCT-116
  GI50: 4.35 µM (inactive)
MOLT-4
  GI50: 3.49 µM (inactive)
NCI-H460
  GI50: 10.3 µM (inactive)
SF-268
  GI50: 32.3 µM (inactive)
MCF7
  GI50: 10.9 µM (inactive)
OVCAR-4
  GI50: 25.8 µM (inactive)
K562
  GI50: 14 µM (inactive)
ACHN
  GI50: 12.5 µM (inactive)
UACC-62
  GI50: 6.65 µM (inactive)
SNB-75
  GI50: 15.6 µM (inactive)
Malme-3M
  GI50: 18.3 µM (inactive)
HOP-62
  GI50: 19.7 µM (inactive)
SK-MEL-2
  GI50: 15.9 µM (inactive)
KM12
  GI50: 14.7 µM (inactive)
BT-549
  GI50: 22.8 µM (inactive)
MDA-N
  GI50: 8.49 µM (inactive)
NCI/ADR-RES
  GI50: 11.9 µM (inactive)
RXF 393
  GI50: 13.6 µM (inactive)
HCT-15
  GI50: 12.4 µM
SNB-19
  GI50: 20 µM (inactive)
EKVX
  GI50: 3.95 µM (inactive)
786-0
  GI50: 17.5 µM (inactive)
LOX IMVI
  GI50: 17.1 µM (inactive)
M14
  GI50: 8.75 µM (inactive)
SF-295
  GI50: 17.2 µM (inactive)
T47D
  GI50: 17.2 µM (inactive)
CAKI-1
  GI50: 22.9 µM (inactive)
NCI-H522
  GI50: 11.7 µM (inactive)
Hs-578T
  GI50: 39.9 µM (inactive)
IGROV-1
  GI50: 23.2 µM (inactive)
PC-3
  GI50: 17.3 µM (inactive)
SW-620
  GI50: 7.08 µM (inactive)
HL-60
  GI50: 3.64 µM (inactive)
UACC-257
  GI50: 11.5 µM (inactive)
HT-29
  GI50: 4.12 µM (inactive)
TK-10
  GI50: 24.5 µM (inactive)
SF-539
  GI50: 16.7 µM (inactive)
SR
  GI50: 12.7 µM (inactive)
OVCAR-5
  GI50: 16.7 µM (inactive)
SK-OV-3
  GI50: 13.7 µM (inactive)
SK-MEL-28
  GI50: 12.5 µM (inactive)

## CN(C)CCNC(=O)c1cc([N+](=O)[O-])cc2c1Oc1ccccc1O2
SN12C
  GI50: 25.7 µM (inactive)
A549
  GI50: 13.5 µM (inactive)
MDA-MB-435
  GI50: 39.7 µM (inactive)
COLO 205
  GI50: 13.7 µM (inactive)
U-251
  GI50: 29.4 µM (inactive)
NCI-H23
  GI50: 51.8 µM (inactive)
NCI-H226
  GI50: 12.6 µM (inactive)
HCC 2998
  GI50: 3.79 µM (inactive)
OVCAR-8
  GI50: 14.4 µM (inactive)
SK-MEL-5
  GI50: 23 µM (inactive)
RPMI-8226
  GI50: 18.6 µM (inactive)
HCT-116
  GI50: 7.33 µM (inactive)
MOLT-4
  GI50: 3.94 µM (inactive)
NCI-H460
  GI50: 4.23 µM (inactive)
SF-268
  GI50: 21.6 µM (inactive)
MCF7
  GI50: 23.1 µM (inactive)
OVCAR-4
  GI50: 40.6 µM (inactive)
K562
  GI50: 23.2 µM (inactive)
ACHN
  GI50: 6.46 µM (inactive)
UACC-62
  GI50: 11.9 µM (inactive)
SNB-75
  GI50: 13 µM (inactive)
A498
  GI50: 25.1 µM (inactive)
Malme-3M
  GI50: 21.7 µM (inactive)
HOP-62
  GI50: 22.5 µM (inactive)
SK-MEL-2
  GI50: 18.2 µM (inactive)
KM12
  GI50: 31 µM (inactive)
BT-549
  GI50: 35.5 µM (inactive)
MDA-N
  GI50: 58.2 µM (inactive)
NCI/ADR-RES
  GI50: 23.9 µM (inactive)
RXF 393
  GI50: 18.2 µM (inactive)
HCT-15
  GI50: > 10 µM
EKVX
  GI50: 56.1 µM (inactive)
786-0
  GI50: 15.6 µM (inactive)
LOX IMVI
  GI50: 12.9 µM (inactive)
M14
  GI50: 31.5 µM (inactive)
SF-295
  GI50: 22 µM (inactive)
T47D
  GI50: 18.5 µM (inactive)
CAKI-1
  GI50: 15.6 µM (inactive)
NCI-H522
  GI50: 21.7 µM (inactive)
DU-145
  GI50: 37.8 µM (inactive)
Hs-578T
  GI50: 28.6 µM (inactive)
CCRF-CEM
  GI50: 17.8 µM (inactive)
IGROV-1
  GI50: 23.4 µM (inactive)
PC-3
  GI50: 42 µM (inactive)
SW-620
  GI50: 11.9 µM (inactive)
HL-60
  GI50: 18.9 µM (inactive)
UACC-257
  GI50: 29.4 µM (inactive)
HT-29
  GI50: 17.3 µM (inactive)
TK-10
  GI50: 23.7 µM (inactive)
OVCAR-3
  GI50: 41.8 µM (inactive)
SF-539
  GI50: 24.8 µM (inactive)
SR
  GI50: 11.7 µM (inactive)
UO-31
  GI50: 11.4 µM (inactive)
OVCAR-5
  GI50: 40.9 µM (inactive)
SK-MEL-28
  GI50: 35.2 µM (inactive)
